The values below come from patent US5580897A, “1,2-dithiins having antifungal activity” (Shaman Pharmaceuticals, Inc., priority 1995, dated 1996).

In general, MIC refers to the smallest concentration in the dilution series that meets the test's criterion for growth inhibition. Lower therefore signals a more susceptible organism.

For data set [1], the system named is Aspergillus fumigatus ATCC13073 (AF). Description: in vitro antifungal activity, minimum inhibitory concentration. It is filed as cell-based. How it is done:
(§1) The antifungal activities of representative 1,2-dithiin compounds listed below were determined in vitro using three fungal cultures: Candida albicans ATCC10259 (CA), Cryptococcus neoformans ATCC36556 (CN), and Aspergillus fumigatus ATCC13073 (AF).
(§2) The method used to determine in vitro antifungal activity is discussed in McGinnis, M. R., Laboratory Handbook of Medical Mycology, Academic Press, New York, London, p. 661 (1980); and Drouget, E.; Dupont, B.; Improvist, L.; Vivian, M. A.; and Tortorano, A. M.; "Disc Agar Diffusion and Microplate Automatized Techniques for In Vitro Evaluation of Antifungal Agents on Yeast and Sporulated Pathogenic Fungi" in In Vitro and In Vivo Evaluation of Antifungal Agents, Eds. lwata, K. and Vanden Bossche, H., Elsevier Science Publishers, New York, Oxford, p. 303 (1986).

Data set [2] has as its system Cryptococcus neoformans ATCC36556 (CN). The data set is described as above. It is filed as cell-based. On the procedure:
as §1, §2

In data set [3] the test system is Candida albicans ATCC10259 (CA). Described as above. It is filed as cell-based. On the procedure: as §1, §2
The test system of data set [4] is Candida tropicalis 1525 (CT). Described as above. It is filed as cell-based. The settings on record: Candida tropicalis 1525, in vitro.
Excerpt: (§3) Additionally, two 1,2-dithiin compounds, 3-(hydroxymethyl)-6-[N-hydroxyiminomethyl]-1,2-dithiin and 3,6-[bis(N-hydroxyiminomethyl)]-1,2-dithiin, were chosen as compounds representative of the 1,2-dithiin class to be tested against a variety of fungi: Candida albicans A-26 (A-26), Candida albicans B311 (B311), Candida krusei GK7831 (CK), Candida parapsilosis CP18 (CP), Candida tropicalis 1525 (CT), Cryptococcus neoformans MI-106 (MI-106), Aspergillus fumigatus WM-1 (WM-1) and Trichophyton rubrum ATCC18762 (TR). The minimum inhibitory concentration (MIC) for 3-(hydroxymethyl)-6-[N-hydroxyiminomethyl]-1,2-dithiin and 3,6-[bis(N-hydroxyiminomethyl)]-1,2-dithiin are shown below in Table II.
as §2

Data set [5] relates to Candida parapsilosis CP18 (CP). The description is as above. The settings on record: Lodderomyces parapsilosis. Type of data set: cell-based.
Excerpt: as §3, §2

The test system of data set [6] is Candida albicans B311 (B311). The description is as above. Type of data set: cell-based.
Excerpt: as §3, §2

Data set [7] relates to Candida albicans A-26 (A-26). The data set is described as above. It is filed as cell-based. The conditions noted are these: Candida albicans A-26, in vitro.
Excerpt: as §3, §2

Data set [8] deals with Aspergillus fumigatus WM-1 (WM-1). The data set is described as above. Type of data set: cell-based. The settings on record: Aspergillus fumigatus WM-1, in vitro.
Excerpt: as §3, §2

The subject of data set [9] is Cryptococcus neoformans MI-106 (MI-106). The description is as above. Type of data set: cell-based. The conditions noted are these: Cryptococcus neoformans MI-106, in vitro.
Excerpt: as §3, §2

For data set [10], the system named is Trichophyton rubrum ATCC18762 (TR). The data set is described as above. Type of data set: cell-based.
Excerpt: as §3, §2

Data set [11] deals with Candida krusei GK7831 (CK). The data set is described as above. Type of data set: cell-based. The settings on record: Pichia kudriavzevii.
Excerpt: as §3, §2

For a further data set, the system named is fungi. The settings on record: natural products, literature; cited from earlier work.
The test system of a further data set is virus. The settings on record: literature; cited from earlier work.
For data set [12] the following is noted: literature; cited from earlier work.

Molecules are shown by their SMILES. In brackets after ≈: the same amount, converted by molar mass.

Consider `CON=CC1=CC=C(C=NOC)SS1` [3,6-Bis[N-methoxyiminomethyl]-1,2-dithiin], for which the MIC is 6.3 µg/mL (≈ 27.4 µM) in data set [1], 1.6 µg/mL (≈ 6.95 µM) in data set [2] and 0.8 µg/mL (≈ 3.47 µM) in [3].
Turning to `ON=CC1=CC=C(C=NO)SS1` [3,6-[Bis(N-hydroxyiminomethyl)]-1,2-dithiin], the MIC in [4] was 1.6 µg/mL (≈ 7.91 µM); in [5] it was 0.2 µg/mL (≈ 0.989 µM); in data set [6] it was 0.1 µg/mL (≈ 0.494 µM); in [7], 0.2 µg/mL (≈ 0.989 µM); in data set [8], 0.2 µg/mL (≈ 0.989 µM); in data set [9], 1.6 µg/mL (≈ 7.91 µM). Further, the MIC in data set [10] amounted to 0.05 µg/mL (≈ 0.247 µM); in data set [11], 6.3 µg/mL (≈ 31.1 µM); in [1] it was 0.4 µg/mL (≈ 1.98 µM); in [2], 0.8 µg/mL (≈ 3.96 µM); in data set [3], 0.1 µg/mL (≈ 0.494 µM).
`O=CC1=CC=C(C=O)SS1` [3-6-Bis(formyl)-1,2-dithiin, 3,6-Bis(formyl)-1,2-dithiin]: the results for the MIC in data set [1], in [2] and in data set [3] were 6.3 µg/mL (≈ 36.6 µM), 1.6 µg/mL (≈ 9.29 µM) and 1.6 µg/mL (≈ 9.29 µM), respectively.
As for `N#C/C=C/C1=CC=C(CO)SS1` [3-(Hydroxymethyl)-6-[2-cyanoethene-1-yl]-1,2-dithiin], the MIC was 6.3 µg/mL (≈ 31.9 µM) in [1], 3.1 µg/mL (≈ 15.7 µM) in data set [2] and 12.5 µg/mL (≈ 63.4 µM) in data set [3].
Turning to `OCC1=CC=C(C=NO)SS1` [3-(Hydroxymethyl)-6-[N-hydroxyiminomethyl]-1,2-dithiin], the MIC in [4] was 6.3 µg/mL (≈ 33.3 µM); in data set [5], 3.1 µg/mL (≈ 16.4 µM); in data set [6] it was 1.6 µg/mL (≈ 8.45 µM); in data set [7], 1.6 µg/mL (≈ 8.45 µM); in data set [8] it was 1.6 µg/mL (≈ 8.45 µM); in data set [9], 1.6 µg/mL (≈ 8.45 µM). For the same compound, the MIC in data set [10] came to 0.8 µg/mL (≈ 4.23 µM); in [11] it was 6.3 µg/mL (≈ 33.3 µM); in data set [1] it was 1.6 µg/mL (≈ 8.45 µM); in data set [2], 1.6 µg/mL (≈ 8.45 µM); in [3] it was 1.6 µg/mL (≈ 8.45 µM).
In the case of `CON=CC1=CC=C(CO)SS1` [3-(Hydroxymethyl)-6-[N-methoxyiminomethyl]-1,2-dithiin], the MIC in data set [1], in data set [2] and in data set [3] was 6.3 µg/mL (≈ 31 µM) throughout.
`CCOC(=O)/C=C/C1=CC=C(CO)SS1` [3-(Hydroxymethyl)-6-[ethyl propenoate-3-yl]-1,2-dithiin]: the MIC in [1] stood at 25 µg/mL (≈ 102 µM); in [2] it was 6.3 µg/mL (≈ 25.8 µM); in [3] it was 12.5 µg/mL (≈ 51.2 µM).
For `COC(=O)/C=C/C1=CC=C(CO)SS1` [3-(Hydroxymethyl)-6-[methyl propenoate-3-yl]-1,2-dithiin] the same measures were 6.3 µg/mL (≈ 27.4 µM), 6.3 µg/mL (≈ 27.4 µM) and 6.3 µg/mL (≈ 27.4 µM).
For `N#CC1=CC=C(CO)SS1` [3-(Hydroxymethyl)-6-cyano-1,2-dithiin], in that order: 0.8 µg/mL (≈ 4.67 µM), 0.8 µg/mL (≈ 4.67 µM) and 0.8 µg/mL (≈ 4.67 µM).
For `O=CC1=CC=C(CO)SS1` [3-(Hydroxymethyl)-6-formyl-1,2-dithiin, 3-(Hydroxymethyl)-6-aldehydyl-1,2-dithiin] the same measures were 25 µg/mL (≈ 143 µM), 6.3 µg/mL (≈ 36.2 µM) and 12.5 µg/mL (≈ 71.7 µM).
With `C=CC#CC#CC1=CC=C(C#CC)SS1` [Thiarubrine A], the antifungal activity result in the data set on fungi is “possess both antifungal and antiviral activity”. The antiviral activity result with virus is “possess both antifungal and antiviral activity”. Further, the cytotoxicity result in [12] is on record as “cytotoxic”.
